Measured values from patent US20260297164A1, “ANTI-FIBROTIC PEPTIDES AND USES THEREOF” (Deackt, Inc., priority 2021, published 2026).

Test system: TGF-β1-induced PI3K/Akt/mTOR, p62, IKK signaling in mouse lung fibroblasts
Experiment: Western immunoblot of signaling proteins in TGF-β1-stimulated mouse lung fibroblasts (SDC2-pep)
Type: cell-based
Settings: wild type fibroblasts, TGF-β1 10 ng/ml, 24 h
Experimental: FIG. 5. […] (A-C) Ptprj^fl/fl Col1a2^Cre-ER(T)+/0 mice (fibroblast-specific CD148 deficient) and Col1a2^Cre-ER(T)+/0 (WT) mice were exposed to BLM. SDC2 18-aa peptide (SDC2-pep, 0.5 mg/kg) was intranasally delivered into WT and Ptprj^fl/fl Col1a2^Cre-ER(T)+/0 mice 10 days after BLM injury. Treatments were repeated at day 12, 14, 16 and 18. (A) At 24 days after BLM exposure lungs were harvested and stained with Masson's trichrome (n=3 for saline and n=5 for BLM groups). (B) Hydroxyproline content was measured in the left lung of mice exposed to BLM (n=11) or saline (n=5). Gene expression of (C) Fn and Col1a1; and (D) connective tissue growth factor (Ctgf) in harvested lungs were measured using qPCR (n=5 for each condition). […] (E) Expression of p-AKT/Akt, p-mTOR/mTOR, p62/GAPDH p-IKKα/β/IKKα, α-SMA/GAPDH, and CD148/GAPDH was determined by Western immunoblotting (n=4), and corresponding densitometry (ImageJ software). […] (F) mRNA levels of Col1a1 and Fn were measured by qPCR (n=5 for each condition). […] Gel contractility was measured at 0, 12, and 24 h after TGF-β1 stimulation (n=6 for each condition). […] Total cell concentrations were measured in BAL fluid from Ptprj^fl/fl Col1a2^Cre-ER(T)+/0 mice and Col1a2-Cre (control) mice 21 days after BLM injury (n=5/group). […]

For TGF-β1, which “expression of p-Akt, p-mTOR, p62, p-IKKα/β, and α-SMA” value is on record?
Its value is “increased”.
